From ChEMBL document CHEMBL3259522, “Synthesis and biological evaluation of some 2-(3,5-dimethyl-1H-pyrazol-1-yl)-1-arylethanones: antibacterial, DNA photocleavage, and anticancer activities” (2014)
Converted amounts (≈) assume the structure as drawn. The source made the active and inactive calls. The rule behind the calls is not given here.

Assays:
Escherichia coli [1] = test: Antibacterial activity against Escherichia coli assessed as diameter of growth inhibition zone after 24 hrs by two fold serial dilution method; format: functional
Staphylococcus aureus [2] = test: Antibacterial activity against Staphylococcus aureus assessed as diameter of growth inhibition zone after 24 hrs by two fold serial dilution method; format: functional
Enterococcus [3] = test: Antibacterial activity against Enterococcus assessed as diameter of growth inhibition zone after 24 hrs by two fold serial dilution method; format: functional
Escherichia coli [4] = test: Antibacterial activity against Escherichia coli assessed as growth inhibition after 24 hrs by two fold serial dilution method; format: functional
Staphylococcus aureus [5] = test: Antibacterial activity against Staphylococcus aureus assessed as growth inhibition after 24 hrs by two fold serial dilution method; format: functional
Enterococcus [6] = test: Antibacterial activity against Enterococcus assessed as growth inhibition after 24 hrs by two fold serial dilution method; format: functional
[7] = Induction of DNA degradation in supercoiled plasmid DNA (unknown origin) by agarose gel electrophoresis in absence of UV light
[8] = Induction of DNA degradation in open circular plasmid DNA (unknown origin) by agarose gel electrophoresis in absence of UV light
[9] = Induction of DNA photocleavage in supercoiled plasmid DNA (unknown origin) at 60 ug by agarose gel electrophoresis in presence of UV light
[10] = Induction of DNA photocleavage in open circular plasmid DNA (unknown origin) at 60 ug by agarose gel electrophoresis in presence of UV light
[11] = Induction of DNA photocleavage in supercoiled plasmid DNA (unknown origin) at 30 ug by agarose gel electrophoresis in presence of UV light
[12] = Induction of DNA photocleavage in open circular plasmid DNA (unknown origin) at 30 ug by agarose gel electrophoresis in presence of UV light
[13] = Induction of DNA photocleavage in supercoiled plasmid DNA (unknown origin) at 15 ug by agarose gel electrophoresis in presence of UV light
[14] = Induction of DNA photocleavage in open circular plasmid DNA (unknown origin) at 15 ug by agarose gel electrophoresis in presence of UV light
[15] = Induction of DNA photocleavage in supercoiled plasmid DNA (unknown origin) at 5 ug by agarose gel electrophoresis in presence of UV light
[16] = Induction of DNA photocleavage in open circular plasmid DNA (unknown origin) at 5 ug by agarose gel electrophoresis in presence of UV light
[17] = Induction of DNA photocleavage in supercoiled plasmid DNA (unknown origin) at 2.5 ug by agarose gel electrophoresis in presence of UV light
[18] = Induction of DNA photocleavage in open circular plasmid DNA (unknown origin) at 2.5 ug by agarose gel electrophoresis in presence of UV light
[19] = Induction of DNA photocleavage in supercoiled plasmid DNA (unknown origin) at 1 ug by agarose gel electrophoresis in presence of UV light
[20] = Induction of DNA photocleavage in open circular plasmid DNA (unknown origin) at 1 ug by agarose gel electrophoresis in presence of UV light
HCT-116 [21] = test: Anticancer activity against human HCT116 cells assessed as cell viability at 10 uM after 48 hrs by MTT assay; format: functional; conditions: HCT-116, 48 h, read-out: Activity
HCT-116 [22] = test: Anticancer activity against human HCT116 cells assessed as cell viability at 25 uM after 48 hrs by MTT assay; format: functional; conditions: HCT-116, 48 h, read-out: Activity
HCT-116 [23] = test: Anticancer activity against human HCT116 cells assessed as cell viability at 50 uM after 48 hrs by MTT assay; format: functional; conditions: HCT-116, 48 h, read-out: Activity
SK-OV-3 = test: Anticancer activity against human SKOV3 cells assessed as cell viability after 72 hrs by MTT assay; format: functional, cell-based
HT-29 [24] = test: Anticancer activity against human HT-29 cells assessed as cell viability at 50 uM after 72 hrs by MTT assay; format: functional, cell-based
DU-145 [25] = test: Anticancer activity against human DU145 cells assessed as cell viability at 50 uM after 72 hrs by MTT assay; format: functional, cell-based
Staphylococcus aureus [26] = test: Antibacterial activity against Staphylococcus aureus assessed as growth inhibition after 24 hrs by two fold serial dilution method relative to ampicillin; format: functional; design: scale not given: the % may be the effect or the level left
Pseudomonas aeruginosa [27] = test: Antibacterial activity against Pseudomonas aeruginosa assessed as diameter of growth inhibition zone after 24 hrs by two fold serial dilution method; format: functional
Klebsiella pneumoniae [28] = test: Antibacterial activity against Klebsiella pneumoniae assessed as diameter of growth inhibition zone after 24 hrs by two fold serial dilution method; format: functional
Pseudomonas aeruginosa [29] = test: Antibacterial activity against Pseudomonas aeruginosa assessed as growth inhibition after 24 hrs by two fold serial dilution method; format: functional
Klebsiella pneumoniae [30] = test: Antibacterial activity against Klebsiella pneumoniae assessed as growth inhibition after 24 hrs by two fold serial dilution method; format: functional
HCT-116 [31] = test: Anticancer activity against human HCT116 cells assessed as cell viability after 72 hrs by MTT assay; format: functional, cell-based
HT-29 [32] = test: Anticancer activity against human HT-29 cells assessed as cell viability after 72 hrs by MTT assay; format: functional, cell-based
DU-145 [33] = test: Anticancer activity against human DU145 cells assessed as cell viability after 72 hrs by MTT assay; format: functional, cell-based
A549 = test: Anticancer activity against human A549 cells assessed as cell viability after 72 hrs by MTT assay; format: functional, cell-based
Escherichia coli [34] = test: Antibacterial activity against Escherichia coli assessed as growth inhibition after 24 hrs by two fold serial dilution method relative to ampicillin; format: functional; design: scale not given: the % may be the effect or the level left
Pseudomonas aeruginosa [35] = test: Antibacterial activity against Pseudomonas aeruginosa assessed as growth inhibition after 24 hrs by two fold serial dilution method relative to ampicillin; format: functional; design: scale not given: the % may be the effect or the level left
Enterococcus [36] = test: Antibacterial activity against Enterococcus assessed as growth inhibition after 24 hrs by two fold serial dilution method relative to ampicillin; format: functional; design: scale not given: the % may be the effect or the level left

Structure (SMILES)	diameter of the inhibition zone (DIZ) (Escherichia coli [1]) [mm]	diameter of the inhibition zone (DIZ) (Staphylococcus aureus [2]) [mm]	diameter of the inhibition zone (DIZ) (Enterococcus [3]) [mm]	MIC (Escherichia coli [4]) [µg/mL]	MIC (Staphylococcus aureus [5]) [µg/mL]	MIC (Enterococcus [6]) [µg/mL]	Activity [7]	Activity [8]	viability at 10 µM (HCT-116 [21]) [%]	viability at 25 µM (HCT-116 [22]) [%]	viability at 50 µM (HCT-116 [23]) [%]	Activity (SK-OV-3)	Activity (Staphylococcus aureus [26]) [%]	further results
Cc1cc(C)n(CC(=O)c2ccc(Br)cc2)n1	14	14	12	256 (≈ 873 µM)	32 (≈ 109 µM)	512 (≈ 1750 µM)	inactive	inactive	62.4	55.9	47.4	inactive	6.25	Activity [9]: Active; Activity [10]: Active; Activity [11]: Active; Activity [12]: Active; Activity [13]: Active; Activity [14]: Active; Activity [15]: Active; Activity [16]: Active; Activity [17]: Active; Activity [18]: Active; Activity [19]: Active; Activity [20]: Active; Activity (HT-29 [24]): inactive; Activity (DU-145 [25]): inactive
Cc1cc(C)n(CC(=O)c2ccc3ccccc3c2)n1	12	10	15	16 (≈ 60.5 µM)	8 (≈ 30.3 µM)	16 (≈ 60.5 µM)	inactive	inactive	56.8	52.6	36.5	inactive	25	diameter of the inhibition zone (DIZ) (Pseudomonas aeruginosa [27]): 14 mm; diameter of the inhibition zone (DIZ) (Klebsiella pneumoniae [28]): 11 mm; MIC (Pseudomonas aeruginosa [29]): 64 µg/mL (≈ 242 µM); MIC (Klebsiella pneumoniae [30]): 64 µg/mL (≈ 242 µM); Activity (HCT-116 [31]): Active; Activity (HT-29 [32]): Active; Activity (DU-145 [33]): Active; Activity (A549): Active; Activity (Escherichia coli [34]): 50%; Activity (Pseudomonas aeruginosa [35]): 12.5%; Activity (Enterococcus [36]): 12.5%
